Data taken from PMC11855866 (International Journal of Molecular Sciences, 2025).
Values after ≈ are worked out from the molar mass of the structure shown. Read-outs that look alike come from different tables or passages of the source.

Columns and labels:
[1] = tested on: mammary tumors; conditions: 20 days; GLIB 0.06 mg/kg/day orally, tamoxifen 1 mg/kg/day s.c.; cited from earlier work
[2] = tested on: mammary tumors; conditions: 20 days; GLIB 0.06 mg/kg/day orally, tamoxifen 1 mg/kg/day s.c.; cited from earlier work; remark: listed apart in the source
[3] = tested on: HepG2 cells; test: MTT cytotoxicity / synergy assay, 72 h, HepG2
Method: (§1) The synergistic effects of drug combinations were studied in various cancer cell lines, including MCF-7 (human breast cancer), A549 (human lung cancer), U-87 MG (human malignant glioma), HepG2 (human liver cancer), and HUH7 (human liver cancer). HMEC-1, an immortalized human microvascular endothelial cell line, was used as a model for normal cells. All cell lines were purchased from ATCC (Rockville, MD, USA).
(§2) The cancer cell lines were cultured in Dulbecco’s Modified Eagle’s Medium (DMEM; Sigma-Aldrich) supplemented with 10% FBS and 1% penicillin/streptomycin mixture (10,000 U/mL penicillin and 10 mg/mL streptomycin; Sigma-Aldrich) at 37 °C in a humidified atmosphere with 5% CO2.
(§3) For the MTT assay, exponentially growing cells were seeded into 96-well plates at a density of 5 × 10³ cells per well. After 24 h of incubation, the medium was replaced with 100 µL of fresh medium containing the tested compounds. After 72 h of treatment, cell viability was assessed using the MTT assay as described earlier. […] IC50 values were calculated using GraphPad Prism 9 software (GraphPad Software).

[4] = tested on: HMEC-1 cells; test: MTT cytotoxicity / synergy assay, 72 h, HMEC-1; conditions: read-out: IC50 Value in Specific Cell Line, HMEC-1; for CC50: Homo sapiens, HMEC-1, 72 h
Method: as §1, §2, §3

[5] = tested on: 4T1 breast cancer and B16F10 melanoma xenografts; conditions: 4T1, B16F10 xenografts, MMTV-PyMT; cited from earlier work
[6] = tested on: MCF-7 cells; test: MTT cytotoxicity / synergy assay, 72 h, MCF-7; assay type: cell-based, human; conditions: 72 h; for IC50: MTT, n.d. = IC50 not achieved within concentrations tested, read-out: IC50 Value in Specific Cell Line, MCF-7; for decrease in cell viability caused by 0.05% Tween-80: with vs. without 0.05% Tween-80
Method: Stock solutions of the tested compounds were first prepared in DMSO at 200-fold the intended final concentration. […] The cells were treated for 72 h under the same conditions.
Following treatment, 25 μL of MTT solution was added to each well, and the plates were incubated for 2 h at 37 °C. […] IC₅₀ values, indicating the concentration required to reduce cell viability by 50% compared to untreated controls (set as 100% viability), were calculated using GraphPad Prism 9 software (GraphPad Software, San Diego, CA, USA). All data from this preliminary cytotoxic assay were analyzed by ANOVA followed by Tukey’s post hoc test for multiple comparisons, with significance set at p < 0.05. A similar statistical approach was used for the rest of the experimental work presented in this study.

[7] = tested on: HuH7 cells; test: MTT cytotoxicity / synergy assay, 72 h, HuH7; conditions: Homo sapiens; for IC50: Huh-7, 72 h, read-out: IC50 Value in Specific Cell Line, HuH7
Method: as §1, §2, §3

[8] = target: BSA; parameters: method as in PMID 29772022; conditions: read-out: Kd (binding to BSA); cited from earlier work
[9] = tested on: MCF-7 cells; conditions: read-out: IC50 value, MCF-7; cited from earlier work
[10] = Analysis of drug stability in PBS; assay type: physicochemical; conditions: equimolar mixtures with DOXO, PBS (pH 7.4), 37 °C, 7 to 14 days
Method: The samples were prepared in PBS (pH 7.4) containing 0.05% (v/v) Tween-80 and 0.5% (v/v) DMSO. […] The samples were placed into 2 mL HPLC vials, sealed, and incubated at 37 °C for 7 to 14 days. Every 24 h, 20 µL aliquots were taken for HPLC analysis.

[11] = tested on: HSA; parameters: method as in Figure S2 [39–71]; conditions: ref Figure S2 [39–71]; cited from earlier work
[12] = parameters: method as in Figure S2 [39–71]; conditions: ref Figure S2 [39–71]; cited from earlier work
[13] = Hemolysis (Drabkin's method); assay type: cell-based; conditions: human, washed erythrocyte (RBC) suspension, 40% hematocrit, pH 7.4, single drug, RT, dark, CTRL− 11.6%
Method: Blood samples were collected from healthy human volunteers into Vacutainer tubes containing 3% sodium citrate (BD Biosciences, Warsaw, Poland). Whole blood was centrifuged at 1500 rpm (RCF = 214 g) for 10 min in a CompactStar CS4 centrifuge (VWR) at RT to separate erythrocytes, which were washed twice with PBS (pH 7.4) and centrifuged at 1500 rpm for 5 min at RT after each wash. Hematocrit was measured to adjust the final RBC concentration in PBS (pH 7.4) to 40%. The drugs were then dissolved in the RBC suspension at the final concentrations outlined in Figure 8. RBCs incubated in dH2O were used as a positive control (100% hemolysis), while RBCs in PBS were used as the negative control. A blank sample of PBS without RBCs or drugs provided a baseline for absorbance measurements. Experimental samples, along with positive, negative, and vehicle (0.5% DMSO) controls, were incubated for 4 h at RT in the dark. After incubation, the samples were centrifuged at 1500 rpm for 5 min at RT, and the supernatant was collected to measure hemoglobin release using Drabkin’s method. Absorbance was measured at 540 nm with a Jenway 6305 UV/Vis spectrophotometer (Bibby Scientific, Staffordshire, UK). This study was conducted in triplicate. The percentage of hemolysis was calculated by comparing the absorbance at 540 nm (OD540) of the test sample with that of the positive control using the following formula:(2) % Hemolysis=OD540Test−OD540(Blank)/OD540Total Lysis−OD540(Blank)×100%

[14] = DLS particle size measurements; assay type: physicochemical; conditions: 100–500 µM CHLO, […] BSA, 0.05% Tween-80
Method: Dynamic light scattering (DLS) measurements were performed using a Zetasizer Nano ZS instrument (Malvern Instruments, Malvern, UK). Samples of 2 mL were placed in disposable PMMA cuvettes (cat. #634-0677; VWR, Gdańsk, Poland) and measured at 37 °C. To ensure accuracy, each sample was measured at least three times. The data were processed using DTS v6.2 software (Malvern Instruments).

[15] = tested on: A549, HepG2, MCF-7, and U-87MG; test: Doxorubicin accumulation assay, sensitive cell lines; assay type: cell-based, human
Method: Cells were seeded at a density of 2 × 10^4 cells per well in black 96-well plates as described in Section 3.6.

[16] = tested on: HepG2 cells; conditions: human
Method: as §1, §2, §3

[17] = tested on: U-87MG cells; test: MTT cytotoxicity / synergy assay, 72 h, U-87MG; assay type: cell-based; conditions: Homo sapiens, n.d. = IC50 not achieved within concentrations tested, read-out: IC50 Value in Specific Cell Line, U-87MG
Method: as §1, §2, §3

[18] = tested on: A549 cells; conditions: human
Method: as §1, §2, §3

[19] = tested on: A549 cells; test: MTT cytotoxicity / synergy assay, 72 h, A549; conditions: Homo sapiens, A549, 72 h, read-out: IC50 Value in Specific Cell Line, A549
Method: as §1, §2, §3

[20] = tested on: MRP1; conditions: cited from earlier work
[21] = Homo sapiens, HepG2, 72 h, read-out: IC50 Value in Specific Cell Line, HepG2

**Q.** With `CC/C(=C(\c1ccccc1)c1ccc(OCCN(C)C)cc1)c1ccccc1` [tamoxifen] as the compound, how does the “tumors responded (regressed or remained stable)” value [1] read?
**A.** 57%

**Q.** What about the tumors responded [2] of the same compound?
**A.** 75%

**Q.** Which results are given for `Cc1cnc(C(=O)NCCc2ccc(S(=O)(=O)NC(=O)NC3CCCCC3)cc2)cn1` [GLIP, Glipizide]?
**A.** IC50 [3, 21]: 229 ± 10.9 µM; CC50 [4]: 454.1 ± 1.8 µM; effect on tumor growth and metastasis [5]: inhibited tumor growth and metastasis; IC50 ([6]; Homo sapiens, MCF7): 339 ± 18.8 µM; IC50 [7]: 421.9 ± 0.5 µM

**Q.** Which results are given for `Cc1ccc(S(=O)(=O)NC(=O)NN2CC3CCCC3C2)cc1` (stereo not shown) [GLIC, Gliclazide]?
**A.** Kd [8]: 155 µM; IC50 [9]: 216 µM; CC50 [4]: 447.7 ± 2.3 µM; stability [10]: slow but noticeable degradation; IC50 ([6]; Homo sapiens, MCF7, 72 h): 87.9 µM

**Q.** Which “concentration above which survival of MCF-7 cells is significantly reduced” value [6] does the source give for Tween-80 here?
**A.** above 0.05 % (v/v)

**Q.** Which IC50 [3, 21] does the source give for `Cc1ccc(S(=O)(=O)NC(=O)NN2CCCCCC2)cc1` [TOLA, Tolazamide] here?
**A.** 470 ± 12.4 µM

**Q.** And the CC50 [4]?
**A.** 468.6 ± 0.5 µM

**Q.** And the stability [10]?
**A.** slow but noticeable degradation

**Q.** With `CCCCNC(=O)NS(=O)(=O)c1ccc(N)cc1` [CARB, Carbutamide] as the compound, how does the IC50 [3, 21] read?
**A.** 70.7 ± 1.4 µM

**Q.** What does the source list for `COCCCNC(=O)NS(=O)(=O)c1ccc(C)cc1` [MESU, N-(3-methoxy-propyl)-N’-(toluene-4-sulfoyl)-urea]?
**A.** IC50 ([3]; read-out: IC50 Value in Specific Cell Line, HepG2, MTT, 72 h, n.d. = IC50 not achieved within concentrations tested): 63.1 ± 0.3 µM; IC50 ([4]; MTT, 72 h, n.d. = IC50 not achieved within concentrations tested): 78.3 ± 2.4 µM; IC50 [6]: 495.9 ± 0.8 µM

**Q.** For `CCCCNC(=O)NS(=O)(=O)c1ccc(C)cc1` [TOLB, Tolbutamide], which IC50 [3, 21] is on record?
**A.** 232 ± 21.6 µM

**Q.** And the CC50 [4]?
**A.** 88.2 ± 4.1 µM

**Q.** What about the IC50 ([6]; Homo sapiens, MCF7) of the same compound?
**A.** 461 ± 53.9 µM

**Q.** Which results are given for `CCCNC(=O)NS(=O)(=O)c1ccc(Cl)cc1` [CHLO, Chlorpropamide]?
**A.** IC50 ([3]; Homo sapiens, HepG2, 72 h, read-out: IC50 Value in Specific Cell Line, HepG2, MTT, 72 h, n.d. = IC50 not achieved within concentrations tested): 480 ± 54.1 µM; nKa (global affinity constant, HSA) [11]: 62000 M⁻¹; solubility [12]: 1000 µM (≈ 277 µg/mL); hemolysis at 4 h [13]: 11.2 to 11.9%; aggregate formation [14]: do not form aggregates; CC50 [4]: 218.2 ± 1.6 µM; increase of DOXO levels [15]: up to 2.3 times; decrease in cell viability caused by 0.05% Tween-80 [6]: 3.2%; IC50 ([6]; Homo sapiens, MCF7, 72 h): > 500 µM

**Q.** With `COc1cccc2c1C(=O)c1c(O)c3c(c(O)c1C2=O)C[C@@](O)(C(=O)CO)C[C@@H]3O[C@H]1C[C@H](N)[C@H](O)[C@H](C)O1` [DOXO, Doxorubicin] as the compound, how does the IC50 [3, 21] read?
**A.** 0.3 ± 0.01 µM

**Q.** And the HepG2 cell viability [16]?
**A.** 0.695 ± 0.003

**Q.** And the hemolysis at 4 h [13]?
**A.** 32.3%

**Q.** And the CC50 [4]?
**A.** 0.08 ± 0.01 µM

**Q.** What about the IC50 [17] of the same compound?
**A.** 0.57 ± 0.11 µM

**Q.** And the A549 cell viability [18]?
**A.** 0.643 ± 0.002

**Q.** And the “decrease in cell viability caused by 0.05% Tween-80” value [6]?
**A.** 12.6%

**Q.** And the IC50 ([6]; Homo sapiens, MCF7)?
**A.** 0.46 ± 0.06 µM

**Q.** And the IC50 [7]?
**A.** 0.28 ± 0.02 µM

**Q.** And the viability at 0.65 µM ([7]; Huh-7, read-out: HuH7 cell viability)?
**A.** 53.5 ± 0.4%

**Q.** And the IC50 [19]?
**A.** 0.27 ± 0.02 µM

**Q.** Which Kd [8] does the source give for `COc1ccc(Cl)cc1C(=O)NCCc1ccc(S(=O)(=O)NC(=O)NC2CCCCC2)cc1` [GLIB, Glibenclamide] here?
**A.** 0.67 µM

**Q.** What about the “concentration increasing intracellular accumulation of calcein” value [20] of the same compound?
**A.** ≥ 3.12 µM

**Q.** And the IC50 [9]?
**A.** 325 µM

**Q.** What about the “tumors responded (regressed or remained stable)” value [1] of the same compound?
**A.** 64%

**Q.** And the CC50 [4]?
**A.** 248 ± 3.6 µM

**Q.** What about the IC50 [7] of the same compound?
**A.** 493.2 ± 1.3 µM

**Q.** And the tumors responded [2]?
**A.** no response

**Q.** With `COc1ccc2c(c1)C(=O)N(CCc1ccc(S(=O)(=O)NC(=O)NC3CCCCC3)cc1)C(=O)C2(C)C` [GLIQ, Gliquidone] as the compound, how does the IC50 [3, 21] read?
**A.** 39.6 ± 2.6 µM

**Q.** What about the hemolysis at 4 h [13] of the same compound?
**A.** 11.2 to 11.9%

**Q.** And the CC50 [4]?
**A.** 157 ± 2.2 µM

**Q.** What about the IC50 [17] of the same compound?
**A.** 57.1 ± 1.8 µM

**Q.** And the “increase of DOXO levels” value [15]?
**A.** up to 2.3 times

**Q.** And the IC50 ([6]; Homo sapiens, MCF7)?
**A.** 68.8 ± 2.5 µM

**Q.** And the IC50 [7]?
**A.** 400.7 ± 2.2 µM

**Q.** And the IC50 [19]?
**A.** 259 ± 16.3 µM
